From ChEMBL document CHEMBL5137015, “Design, synthesis, and evaluation of a novel series of mono-indolylbenzoquinones derivatives for the potential treatment of breast cancer” (Eur J Med Chem, 2022) come the findings set out here.

The structures appear in SMILES notation. Activity calls are given as the source filed them. The calls are words filed in the database; no cut-off is given here. Some results are limits rather than exact numbers.

One data set relates to HeLa. Briefly: Antiproliferative activity against human HeLa cells assessed as inhibition of cell growth by MTT assay. The class given is functional, cell-based.
For another data set, the system named is A549. Briefly: Antiproliferative activity against human A549 cells assessed as inhibition of cell growth by MTT assay. Type of data set: functional, cell-based.
Data set [1] deals with MDA-MB-231. In words: Antiproliferative activity against human MDA-MB-231 cells assessed as inhibition of cell growth by MTT assay. The class given is functional, cell-based.
Data set [2] relates to MDA-MB-231. In words: Induction of cell cycle arrest in human MDA-MB-231 cells assessed as increase in G2 phase cells at 10 uM incubated for 24 hrs by PI staining based flow cytometric analysis (reference value: 8.95%). Type of data set: functional.
In data set [3] the test system is MDA-MB-231. Briefly: Induction of cell cycle arrest in human MDA-MB-231 cells assessed as decrease in S phase cells at 10 uM incubated for 24 hrs by PI staining based flow cytometric analysis (reference value: 16.61%). The class given is functional. Also on record: scale not given: the % may be the effect or the level left.
Data set [4] deals with MDA-MB-231. Briefly: Induction of cell cycle arrest in human MDA-MB-231 cells assessed as decrease in G1 phase cells at 10 uM incubated for 24 hrs by PI staining based flow cytometric analysis (reference value: 74.44%). The class given is functional. Also on record: scale not given: the % may be the effect or the level left.
Data set [5] has as its system MDA-MB-231. Briefly: Induction of apoptosis in human MDA-MB-231 cells assessed as apoptotic cells at 10 uM incubated for 24 hrs by Annexin V-FITC/propidium iodide staining based flow cytometric method (reference value: 5.68%). The class given is functional.
Data set [6] relates to 4T1. In words: Antitumor activity against mouse 4T1 cells implanted in Balb/c mouse assessed as tumor growth inhibition by measuring T/C ratio at 50 mg/kg administered intratumorally every four days for 14 days in the presence of liquid cyanoacrylate. The class given is functional. The note with it: route it(Intratumoral), time 14 day.
The test system of data set [7] is 4T1. Briefly: Antitumor activity against mouse 4T1 cells implanted in Balb/c mouse assessed as apoptotic rate of dissected tumor cell at 50 mg/kg administered intratumorally every four days for 14 days in the presence of liquid cyanoacrylate by flow cytometric analysis (reference value: 64.83%). Type of data set: functional. Conditions: route it(Intratumoral), time 14 day.

For data set [8], the system named is 4T1. In words: Antitumor activity against mouse 4T1 cells implanted in Balb/c mouse assessed as nuclei disappearance at 50 mg/kg administered intratumorally every four days for 14 days in the presence of liquid cyanoacrylate. Type of data set: functional, organism-based. The note with it: route it(Intratumoral), time 14.0 day.
Data set [9] can be described thus: Toxicity in Balb/c mouse implanted with mouse 4T1 cells assessed as kidney lesions at 50 mg/kg administered intratumorally every four days for 14 days in the presence of liquid cyanoacrylate by H&E staining based histopathological analysis. Type of data set: organism-based. Conditions: in vivo, other, 336 h, route it(Intratumoral), time 14 day.
Data set [10] is described as follows: Toxicity in Balb/c mouse implanted with mouse 4T1 cells assessed as spleen lesions at 50 mg/kg administered intratumorally every four days for 14 days in the presence of liquid cyanoacrylate by H&E staining based histopathological analysis. The class given is organism-based. The note with it: in vivo, other, 336 h, route it(Intratumoral), time 14 day.
Data set [11] in a line: Toxicity in Balb/c mouse implanted with mouse 4T1 cells assessed as heart lesions at 50 mg/kg administered intratumorally every four days for 14 days in the presence of liquid cyanoacrylate by H&E staining based histopathological analysis. Type of data set: organism-based. Conditions: in vivo, other, 336 h, route it(Intratumoral), time 14 day.
Data set [12] concerns 4T1. In words: Antitumor activity against mouse 4T1 cells implanted in Balb/c mouse assessed as TUNEL positive cells at 50 mg/kg administered intratumorally every four days for 14 days in the presence of liquid cyanoacrylate by TUNEL staining analysis. Conditions: route it(Intratumoral), time 14 day. Type of data set: functional.
Data set [13] is described as follows: Toxicity in Balb/c mouse implanted with mouse 4T1 cells assessed as lung lesions at 50 mg/kg administered intratumorally every four days for 14 days in the presence of liquid cyanoacrylate by H&E staining based histopathological analysis. The class given is organism-based. The note with it: in vivo, other, 336 h, route it(Intratumoral), time 14 day.
Data set [14] can be described thus: Toxicity in Balb/c mouse implanted with mouse 4T1 cells assessed as liver lesions at 50 mg/kg administered intratumorally every four days for 14 days in the presence of liquid cyanoacrylate by H&E staining based histopathological analysis. The class given is organism-based. Conditions: in vivo, other, 336 h, route it(Intratumoral), time 14 day.
Another data set deals with Mus musculus. Briefly: Protection of Balb/c mouse spleen implanted with mouse 4T1 cells at 50 mg/kg administered intratumorally every four days for 14 days in the presence of liquid cyanoacrylate. The class given is functional, organism-based. The note with it: route it(Intratumoral), time 14.0 day.
Data set [15] relates to 4T1. Briefly: Antitumor activity against mouse 4T1 cells implanted in Balb/c mouse assessed as tumor growth inhibition at 50 mg/kg administered intratumorally every four days for 14 days in the presence of liquid cyanoacrylate relative to control. Type of data set: functional. The note with it: 4T1, 336 h, route it(Intratumoral), time 14 day, read-out: TGI.

Turning to `C#CCNC1=C(Cl)C(=O)C(c2c(C)[nH]c3ccccc23)=C(Cl)C1=O`, the results for the IC50 in the data set on HeLa, in the data set with A549 and with MDA-MB-231 [1] were 920 nM, 670 nM and 170 nM, respectively.

For `COc1ccc(CCNC2=C(Cl)C(=O)C(Cl)=C(c3c(C)[nH]c4ccccc34)C2=O)cc1OC`, the IC50 in the data set with HeLa came to 9730 nM; in the data set with A549, 8640 nM; in the data set with MDA-MB-231 [1] it was 1490 nM.

For the compound `Cc1[nH]c2ccccc2c1C1=C(Cl)C(=O)C(Cl)=C(NCCc2cc3ccccc3[nH]2)C1=O`, the values for the IC50 in the data set on HeLa, with A549 and with MDA-MB-231 [1] were more than 10000 nM, more than 10000 nM and 620 nM, respectively.

Take `Cn1c(CCCC(=O)O)nc2cc(N(CCCl)CCCl)ccc21` [BENDAMUSTINE]: the IC50 in the data set on HeLa was more than 20000 nM.

For the compound `COC(=O)/C=C/C(=O)OCCN1CCN(C2=C(Cl)C(=O)C(c3c(C)[nH]c4ccccc34)=C(Cl)C2=O)CC1`, the IC50 in the data set on HeLa stood at 330 nM; with A549, 320 nM; in the data set on MDA-MB-231 [1], 140 nM.

As for `C#CCNC1=C(Cl)C(=O)C(Cl)=C(c2c(C)[nH]c3ccccc23)C1=O`, the IC50 was 190 nM in the data set with HeLa, 160 nM with A549 and 190 nM with MDA-MB-231 [1].

For the compound `COC(=O)/C=C/C(=O)OCCNC1=C(Cl)C(=O)C(Cl)=C(c2c(C)[nH]c3ccccc23)C1=O`, the IC50 in the data set on HeLa stood at 110 nM; in the data set on A549 it was 340 nM; in the data set on MDA-MB-231 [1], 140 nM.

As to `COc1ccc(CCNC2=C(Cl)C(=O)C(c3c(C)[nH]c4ccccc34)=C(Cl)C2=O)cc1OC`, the IC50 in the data set on HeLa is 6300 nM; in the data set on A549, 720 nM; in the data set with MDA-MB-231 [1], 290 nM.

`Cc1[nH]c2ccccc2c1C1=C(Cl)C(=O)C(N2CCOCC2)=C(Cl)C1=O`: the IC50 was determined as 250 nM in the data set with HeLa, 170 nM with A549 and 200 nM with MDA-MB-231 [1]. Moreover, the Activity with MDA-MB-231 [2] came to 81.89%; in the data set with MDA-MB-231 [3] it was 7.67%; with MDA-MB-231 [4], 10.44%; with MDA-MB-231 [5], 31.74%.

For the compound `O=C1c2c(O)ccc(O)c2C(=O)c2c(NCCNCCO)ccc(NCCNCCO)c21` [MITOXANTRONE], the T/C with 4T1 [6] came out at 32%. Also, the Activity is given as 77.86% in the data set on 4T1 [7]; “Non-Toxic” in [9]; “Non-Toxic” in data set [10]; “Non-Toxic” in data set [11]; 93.24% in the data set on 4T1 [12]; “Non-Toxic” in [13]. Moreover, in data set [14], the Activity result is “Non-Toxic”. Also, the result in the data set on 4T1 [8] and in the data set on Mus musculus was Active. Besides, the inhibition in vivo at 50 mg/kg in the data set with 4T1 [15] came to 59.8%.

Consider `COC(=O)/C=C/C(=O)OCCN1CCN(C2=C(Cl)C(=O)C(Cl)=C(c3c(C)[nH]c4ccccc34)C2=O)CC1`, for which the figures for the IC50 in the data set with HeLa, in the data set with A549 and in the data set on MDA-MB-231 [1] were 220 nM, 8380 nM and 260 nM, respectively.

Regarding `Cc1[nH]c2ccccc2c1C1=C(Cl)C(=O)C(NCCOc2ccccc2)=C(Cl)C1=O`, the results for the IC50 with HeLa, in the data set with A549 and with MDA-MB-231 [1] were 5050 nM, 7090 nM and 730 nM, respectively.

As to `Cc1[nH]c2ccccc2c1C1=C(Cl)C(=O)C(N2CCN(C=O)CC2)=C(Cl)C1=O`, the values for the IC50 with HeLa, in the data set with A549 and in the data set on MDA-MB-231 [1] were 740 nM, 370 nM and 200 nM, respectively.

As for `COc1ccc(/C=C\c2cc(OC)c(OC)c(OC)c2)cc1O` [COMBRETASTATIN A4], the Activity amounted to 91.6% with MDA-MB-231 [2], 8% with MDA-MB-231 [3], 8.4% in the data set with MDA-MB-231 [4] and 25.55% in the data set with MDA-MB-231 [5].

Regarding `Cc1[nH]c2ccccc2c1C1=C(Cl)C(=O)C(Cl)=C(NCCOc2ccccc2)C1=O`, the results for the IC50 with HeLa, in the data set on A549 and in the data set on MDA-MB-231 [1] were more than 10000 nM, more than 10000 nM and 710 nM, respectively.

For the compound `COC(=O)/C=C/C(=O)OCCNC1=C(Cl)C(=O)C(c2c(C)[nH]c3ccccc23)=C(Cl)C1=O`, the IC50 is 220 nM with HeLa, 150 nM in the data set on A549 and 110 nM with MDA-MB-231 [1].

As for `Cc1[nH]c2ccccc2c1C1=C(Cl)C(=O)C(NCCc2cc3ccccc3[nH]2)=C(Cl)C1=O`, the values for the IC50 in the data set with HeLa, in the data set with A549 and in the data set with MDA-MB-231 [1] were 3110 nM, 440 nM and 830 nM, respectively.

For `Cc1[nH]c2ccccc2c1C1=C(Cl)C(=O)C(Cl)=C(N2CCN(C=O)CC2)C1=O`, the IC50 with HeLa is 350 nM; in the data set with A549 it was 170 nM; in the data set on MDA-MB-231 [1], 120 nM.
